# Marks after values point to notes of the source that are not given here.
# Columns and labels:
# Sheep MCC = experiment: Mucociliary clearance (MCC) studies in sheep; assay type: in vivo; details: sheep, 0.24 nmol/kg (3 μM); for effect on MCC compared to vehicle: 4 h post-dose; for AUC (% Cl-h) / Initial Slope (4.0-4.5 h): aerosol, MCC at 4 h post-dose
# Protocol: The animal model that has been used most often to measure changes in MCC is the sheep model. The effect of compounds for enhancing mucociliary clearance (MCC) can be measured using an in vivo model described by Sabater et al., Journal of Applied Physiology, 1999, pp. 2191-2196, incorporated herein by reference.
# In these studies, adult sheep were restrained and nasally intubated with an endotracheal tube. Aerosolized test articles were administered over 10-15 minutes to sheep. Radiolabeled ^99mTc-sulfur colloid (TSC, 3.1 mg/mL; containing approximately 20 mCi) was then administered at a specified time four or eight hours after test article. The radiolabeled aerosol was administered through the endotracheal tube for about 5 minutes. The sheep were then extubated, and total radioactive counts in the lung were measured every 5 minutes for a 1-hour observation period. The rate of radiolabel clearance from the lung is representative of the MCC rate in the animal. The advantage of this system is that it closely simulates the human lung environment. The model also allows for the collection of simultaneous PK/PD information through plasma and urine sampling over the test period. There are also several techniques to measure the drug concentrations on the airway surface during the MCC measurements. These include the collection of exhaled breath condensates or a filter paper method to obtain ASL via bronchoscopy.
# The ovine model described above was used to evaluate the in vivo effects (efficacy/durability) of aerosol-delivered test agent on MCC. Treatments consisting of either 4 mL of test agent or test agent in combination with HS were tested. To determine if combining HS with test agent enhanced MCC, HS was administered immediately following test agent administration. Test solutions were aerosolized using a Raindrop nebulizer at a flowrate of eight liters per minute and connected to a dosimetry system consisting of a solenoid valve and a source of compressed air (20 psi). The deposited dose of drug in sheep lungs after an aerosol administration using the Raindrop nebulizer is estimated to be 8-15% of the dose. Using a Raindrop nebulizer, radiolabeled TSC was administered over approximately 3 minutes either 4 or 8 hours after drug treatment to evaluate efficacy/durability. Radioactive counts were measured in a central region in the right lung at 5 min intervals for one hour with a gamma camera. Three methods of analysis were utilized, 1) initial rate of clearance (slope) over the first 30 min fitted using linear regression 2) area under the curve for % clearance over time over one hour, and 3) the maximum clearance obtained in one hour.
# [1] = molecular target: T1, epithelial sodium channel (Canis lupus familiaris, UniProt A0A8I3MKE6+A0A8I3Q679+Q95165); experiment: Inhibition of short-circuit current (ISC) in airway epithelial monolayers in Ussing chambers; assay type: cell-based, canine; details: canine bronchial epithelial cells, short-circuit current; read-out: Potency of Sodium Channel Blockade IC50
# T1 construct: endogenous in cells; host or cells: primary canine bronchial epithelial cells cultured at air-liquid interface
# T1 sequence (A0A8I3Q679 1-649): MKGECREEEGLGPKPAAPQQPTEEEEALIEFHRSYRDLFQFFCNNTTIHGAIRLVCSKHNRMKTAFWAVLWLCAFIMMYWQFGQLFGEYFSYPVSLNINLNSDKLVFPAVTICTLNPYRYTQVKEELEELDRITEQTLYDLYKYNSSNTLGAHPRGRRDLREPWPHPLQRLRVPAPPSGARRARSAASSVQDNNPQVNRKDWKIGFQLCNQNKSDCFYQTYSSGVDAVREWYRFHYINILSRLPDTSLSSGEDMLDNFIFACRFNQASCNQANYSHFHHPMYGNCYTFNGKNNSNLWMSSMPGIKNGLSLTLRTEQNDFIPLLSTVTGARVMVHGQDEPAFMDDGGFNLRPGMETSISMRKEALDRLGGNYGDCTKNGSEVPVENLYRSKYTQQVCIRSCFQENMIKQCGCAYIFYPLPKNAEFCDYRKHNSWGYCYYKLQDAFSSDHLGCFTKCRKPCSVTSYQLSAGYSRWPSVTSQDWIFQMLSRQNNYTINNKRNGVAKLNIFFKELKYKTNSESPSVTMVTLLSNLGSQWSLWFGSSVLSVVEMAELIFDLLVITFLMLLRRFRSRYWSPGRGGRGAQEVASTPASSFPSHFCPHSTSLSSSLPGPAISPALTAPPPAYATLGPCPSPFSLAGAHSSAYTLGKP
# T1 sequence (Q95165 1-641): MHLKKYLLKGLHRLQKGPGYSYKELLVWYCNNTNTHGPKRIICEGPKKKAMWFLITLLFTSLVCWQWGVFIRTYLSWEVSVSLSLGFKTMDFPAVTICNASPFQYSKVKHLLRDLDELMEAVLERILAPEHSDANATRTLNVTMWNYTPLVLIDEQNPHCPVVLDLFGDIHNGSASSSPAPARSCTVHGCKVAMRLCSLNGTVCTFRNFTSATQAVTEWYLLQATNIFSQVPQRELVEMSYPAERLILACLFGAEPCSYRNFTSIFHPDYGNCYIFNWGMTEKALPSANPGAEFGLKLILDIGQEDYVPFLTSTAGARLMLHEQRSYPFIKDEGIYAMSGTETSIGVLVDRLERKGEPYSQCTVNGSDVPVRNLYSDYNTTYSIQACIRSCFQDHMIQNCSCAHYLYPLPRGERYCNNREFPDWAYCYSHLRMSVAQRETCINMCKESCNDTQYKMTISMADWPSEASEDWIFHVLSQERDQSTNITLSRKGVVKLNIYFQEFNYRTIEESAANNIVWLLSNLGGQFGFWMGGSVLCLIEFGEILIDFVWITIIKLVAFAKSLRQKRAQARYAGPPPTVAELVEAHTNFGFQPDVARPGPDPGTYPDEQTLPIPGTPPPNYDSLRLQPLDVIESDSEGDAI
# T1 sequence (A0A8I3MKE6 1-646): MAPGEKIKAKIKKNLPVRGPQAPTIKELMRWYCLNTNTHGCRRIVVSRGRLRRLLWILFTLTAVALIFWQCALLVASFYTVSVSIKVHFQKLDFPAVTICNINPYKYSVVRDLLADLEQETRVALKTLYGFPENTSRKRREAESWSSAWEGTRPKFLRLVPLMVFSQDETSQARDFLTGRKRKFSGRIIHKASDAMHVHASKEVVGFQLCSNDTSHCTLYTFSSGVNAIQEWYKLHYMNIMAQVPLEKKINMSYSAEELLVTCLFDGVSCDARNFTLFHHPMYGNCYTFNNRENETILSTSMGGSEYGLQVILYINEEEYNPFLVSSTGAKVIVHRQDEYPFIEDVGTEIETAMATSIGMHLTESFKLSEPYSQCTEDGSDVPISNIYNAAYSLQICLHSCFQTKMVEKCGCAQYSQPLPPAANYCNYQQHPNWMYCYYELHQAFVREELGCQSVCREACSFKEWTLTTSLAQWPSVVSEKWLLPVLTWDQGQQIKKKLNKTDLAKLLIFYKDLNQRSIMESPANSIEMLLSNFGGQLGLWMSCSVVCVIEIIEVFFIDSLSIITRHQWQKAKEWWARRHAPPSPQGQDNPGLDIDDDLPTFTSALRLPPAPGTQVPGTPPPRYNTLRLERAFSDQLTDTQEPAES
# Protocol: One assay used to assess mechanism of action and/or potency of the compounds of the present invention involves the determination of lumenal drug inhibition of airway epithelial sodium currents measured under short circuit current (ISC) using airway epithelial monolayers mounted in Using chambers. Cells obtained from freshly excised human, dog, sheep or rodent airways are seeded onto porous 0.4 micron Snapwelff Inserts (CoStar), cultured at air-liquid interface (ALI) conditions in hormonally defined media, and assayed for sodium transport activity (ISC) while bathed in Krebs Bicarbonate Ringer (KBR) in Using chambers. All test drug additions are to the lumenal bath with half-log dose addition protocols (from 1×10^−11 M to 3×10^−5 M), and the cumulative change in ISC (inhibition) recorded. All drugs are prepared in dimethyl sulfoxide as stock solutions at a concentration of 1×10^−2 M and stored at −20° C. […] After the maximal concentration ([…]) is administered, the lumenal bath is exchanged three times with fresh drug-free KBR solution, and the resultant ISC measured after each wash for approximately 5 minutes in duration. Reversibility is defined as the percent return to the baseline value for sodium current after the third wash. All data from the voltage clamps are collected via a computer interface and analyzed off-line.
# Dose-effect relationships for all compounds are considered and analyzed by the Prism 3.0 program.
SMILES,IC50 [1],effect on MCC compared to vehicle (Sheep MCC),AUC (% Cl-h) (Sheep MCC),Initial Slope (4.0-4.5 h) (Sheep MCC)
"N=C(NCCCCc1ccc(C[C@H](N)C(=O)Nc2ccc(CCCCCCN(C[C@H](O)[C@@H](O)[C@H](O)[C@H](O)CO)C[C@H](O)[C@@H](O)[C@H](O)[C@H](O)CO)cc2)c2ccccc12)NC(=O)c1nc(Cl)c(N)nc1N [Compound 48, 3,5-diamino-N—(N-(4-(4-((S)-2-amino-3-(4-(6-(bis((2S,3R,4R,5R)-2,3,4,5,6-pentahydroxyhexyl)amino)hexyl)phenylamino)-3-oxopropyl)naphthalen-1-yl)butyl)carbamimidoyl)-6-chloropyrazine-2-carboxamide]",47 nM,Similarly Enhance MCC Compared to Vehicle,15.4* (2) % Cl-h,29.8* (2)
"N=C(NCCCCc1ccc(C[C@H](N)C(=O)Nc2ccc(CCCNC[C@H](O)[C@@H](O)[C@H](O)[C@H](O)CO)cc2)c2ccccc12)NC(=O)c1nc(Cl)c(N)nc1N [Compound 38, 3,5-diamino-N—(N-(4-(4-((S)-2-amino-3-oxo-3-(4-(3-((2S,3R,4R,5R)-2,3,4,5,6-pentahydroxyhexylamino)propyl)phenylamino)propyl)naphthalen-1-yl)butyl)carbamimidoyl)-6-chloropyrazine-2-carboxamide]",25.4 nM,,,
"CN(C)CCCCCCc1ccc(NC(=O)[C@@H](N)Cc2ccc(CCCCNC(=N)NC(=O)c3nc(Cl)c(N)nc3N)c3ccccc23)cc1 [Compound 43, (S)-3,5-diamino-N—(N-(4-(4-(2-amino-3-(4-(6-(dimethylamino)hexyl)phenylamino)-3-oxopropyl)naphthalen-1-yl)butyl)carbamimidoyl)-6-chloropyrazine-2-carboxamide]",50.1 nM,,,
"CN(C)CCCc1ccc(NC(=O)[C@@H](N)Cc2ccc(CCCCNC(=N)NC(=O)c3nc(Cl)c(N)nc3N)c3ccccc23)cc1 [Compound 23, (S)-3,5-diamino-N—(N-(4-(4-(2-amino-3-(4-(3-(dimethylamino)propyl)phenylamino)-3-oxopropyl)naphthalen-1-yl)butyl)carbamimidoyl)-6-chloropyrazine-2-carboxamide]",20.7 nM,,,

# Compounds with a lower IC50 [1], results first:
IC50 [1],SMILES,effect on MCC compared to vehicle (Sheep MCC),AUC (% Cl-h) (Sheep MCC),Initial Slope (4.0-4.5 h) (Sheep MCC)
2.3 nM,"CCCCCCN(CCCc1ccc(NC(=O)[C@@H](N)Cc2ccc(CCCCNC(=N)NC(=O)c3nc(Cl)c(N)nc3N)c3c2CCCC3)cc1)C[C@H](O)[C@@H](O)[C@H](O)[C@H](O)CO [Compound 123, 3,5-diamino-N—(N-(4-(4-((S)-2-amino-3-(4-(3-(hexyl((2S,3R,4R,5R)-2,3,4,5,6-pentahydroxyhexyl)amino)propyl)phenylamino)-3-oxopropyl)-5,6,7,8-tetrahydronaphthalen-1-yl)butyl)carbamimidoyl)-6-chloropyrazine-2-carboxamide]",Similarly Enhance MCC Compared to Vehicle,14.4* (2) % Cl-h,29.2* (2)
7.6 nM,"N=C(NCCCCc1ccc2cc(C[C@H](N)C(=O)Nc3ccc(CCCNC[C@H](O)[C@@H](O)[C@H](O)[C@H](O)CO)cc3)ccc2c1)NC(=O)c1nc(Cl)c(N)nc1N [Compound 99, 3,5-diamino-N—(N-(4-(6-((S)-2-amino-3-oxo-3-(4-(3-((2S,3R,4R,5R)-2,3,4,5,6-pentahydroxyhexylamino)propyl)phenylamino)propyl)naphthalen-2-yl)butyl)carbamimidoyl)-6-chloropyrazine-2-carboxamide]",,,
8.6 nM,"N=C(NCCCCc1ccc(C[C@H](N)C(=O)Nc2ccc(CCCN(C[C@H](O)[C@@H](O)[C@H](O)[C@H](O)CO)C[C@H](O)[C@@H](O)[C@H](O)[C@H](O)CO)cc2)c2c1CCCC2)NC(=O)c1nc(Cl)c(N)nc1N [Compound 127, 3,5-diamino-N—(N-(4-(4-((S)-2-amino-3-(4-(3-(bis((2S,3R,4R,5R)-2,3,4,5,6-pentahydroxyhexyl)amino)propyl)phenylamino)-3-oxopropyl)-5,6,7,8-tetrahydronaphthalen-1-yl)butyl)carbamimidoyl)-6-chloropyrazine-2-carboxamide]",,,
19.4 nM,"N=C(NCCCCc1ccc2cc(C[C@H](N)C(=O)O)ccc2c1)NC(=O)c1nc(Cl)c(N)nc1N [Compound 80, (S)-2-amino-3-(6-(4-(3-(3,5-diamino-6-chloropyrazine-2-carbonyl)guanidino)butyl)naphthalen-2-yl)propanoic acid]",,,

# Reference: patent publication US9593084B2 (Parion Sciences, Inc., priority 2012, dated 2017)
